Results from patent publication US8647687B2, “Isoamyl acetate for weight management” (Nestec S.A., priority 2008, dated 2014).

Assay: Clinical trial: Wanting, Liking and Intensity ratings of flavored waters after a preload
Assay type: in vivo, human
Conditions: prior consumption of the preload, then rating of isoamyl acetate flavored water; 17 participants
Experimental: Isoamyl acetate was combined with 0.5% w/w sucrose (Fisher Scientific) and dissolved in bottled mineral water (Vittel, Nestlé waters, France). Isoamyl acetate was provided as liquid concentrate supplied by Sigma-Aldrich (Steinheim, Germany). The final concentration of isoamyl acetate was 16 ppm.
A clinical trial with 17 healthy participants was conducted to investigate the neural correlates of flavor reward in terms of “Liking” (or pleasure) and “Wanting” (or appetite). Seventeen participants rated flavored waters in different conditions while their brain electrical activity was monitored using electro-encephalography. Waters were flavored either with isoamyl acetate (described as banana) or ethyl butyrate (described as strawberry). Experimental conditions consisted in the ratings of the 2 flavored waters after a preload (prior consumption of a flavored water) or without a preload.
The behavioral results of this clinical trial are summarized in FIG. 1 showing the mean Wanting (or appetite) and Liking (or pleasure) ratings (from 1, not at all to 9, extremely) obtained for the ETB flavored water in the different Preload conditions from 17 participants. […] IAA: isoamyl acetate; ETB: ethyl butyrate.

With CCCC(=O)OCC [ethyl butyrate] the “appetite for isoamyl acetate flavored water” value was “no impact”.
